Results on 3 molecules are retold here after patent publication US7968556B2, “Heteroaryl compounds, compositions thereof, and methods of treatment therewith” (Signal Pharmaceuticals, LLC, priority 2006, dated 2011).

Some results are limits rather than exact numbers.

Experiment [1] addresses mTOR (Homo sapiens, UniProt P42345). Put plainly: mTOR HTR-FRET Assay. The format is biochemical. In short, it runs like this: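 TOR enzyme fraction preincubated 30 min at room temperature with compound, then reaction started with GST-p70S6 kinase fragment substrate (97 nM working stock) plus ATP/Mn2+ and run 2 h at room temperature in Tris pH 7.4 buffer. Stopped with EDTA; phospho-substrate detected by HTRF antibody reagent after 5 h to overnight.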

Experiment [2] concerns the target T1, Syk (Homo sapiens, UniProt P43405).
T1 construct: purchased Cama Biosciences (so in the source)
Put plainly: Syk HTRF Assay. In kind it is biochemical. The protocol:
5 μl/well DMSO is added to Column 2 Wells A-0 and 29.5 μl to well P2 of Greiner 384-well polypropylene plate. 20 μl/well DMSO is added to Columns 1 and 3-12.
25 mM compound solutions are prepared by the addition of 25 μl of 30 mM compound to Column 2 and 0.5 μl 30 mM reference control to well P2.
Serial dilution is then performed by the following steps: (i) compounds in Column 2 are mixed by pipetting 20 μl up and down 6×; (ii) 10 μl/well compounds in DMSO are transferred from one column to the next column for Columns 2-11; (iii) wells are mixed by pipetting 20 μl up and down 6×; (iv) tips washed 3×25 μl DMSO, 2×25 μl next DMSO.
The following buffers are prepared:
Dilution Buffer: 50 mM HEPES pH 7.6; 1 mM DTT; 10 mM MgCl2; 0.01% Triton X100; 0.01% BSA; 0.1 mM EDTA.
Enzyme Mix in Dilution Buffer: 8.621 ng/ml Syk (Cama Biosciences 08-176).
Start Mix in Dilution Buffer: 87.5 μM ATP; 80 nM Substrate Peptide (American Peptide Company 332722).
14.5 μl/well Enzyme Mix or Dilution Buffer (Background Controls) is added to Costar 384-well black plates.
Compound addition and mixture is performed by the following steps: (i) 0.5 μl/well DMSO/compounds in DMSO transferred from Greiner 384-well polypropylene plate to left half of assay plate containing 14.5 μl/well Enzyme Mix and Dilution Buffer; (ii) Mix by pipetting 10 μl up and down 4×; (iii) tips are washed 4×10 μl in DMSO, 2×20 μl in other DMSO; (iv) steps i-iii are repeated with transfer to right half of assay plate; (v) steps i-iv are repeated with each compound/assay plate until all plates are completed.
10 μl/well Start Mix is added and incubated at room temperature on shaker for 2 minutes (1 hour total reaction time).
Stop Solution in Dilution Buffer: 120 mM EDTA
Antibody Mix in Dilution Buffer: 4.86 μg/ml DyLight 647 Streptavidin (Pierce 21824); 1 μg/ml Lance Eu-Anti-Phosphotyrosine (PerkinElmer AD0069).
5 μl/well[…] is added and incubated at room temperature on shaker for 2 minutes.
[…] Antibody Mix is added and Incubated at room temperature on shaker for 2 minutes (4 hours to overnight total time).
Plates are read at 665 nm and 620 nm emission on Analyst GT protocol HTRF_SP_A or EnVision protocol Steve's TR-FRET.
(In general: In TR-FRET formats the signal depends on donor and acceptor labels being close together.)

The term IC50 denotes the point on the concentration scale where inhibition reaches its midpoint. High values mean weaker potency in that assay, low ones greater potency in that assay. Consider `COc1ccccc1-n1c(=O)[nH]c2c(C(N)=O)nc(-c3ccnc(O)c3)nc21` [Compound 13, 2-(2-hydroxypyridin-4-yl)-9-(2-methoxyphenyl)-8-oxo-8,9-dihydro-7H-purine-6-carboxamide], for which the half-maximal inhibitory concentration (IC50) in experiment [1] and in experiment [2] was more than 30 µM each time. For `COc1ccccc1-n1c(=O)[nH]c2c(C(N)=O)nc(-c3ccc(O)cc3)nc21` [Compound 8, 2-(4-hydroxyphenyl)-9-(2-methoxyphenyl)-8-oxo-8,9-dihydro-7H-purine-6-carboxamide], the concentration for half-maximal inhibition (IC50) is 5.1 to 10 µM in experiment [1] and more than 30 µM in experiment [2]. In experiment [1], `NC(=O)c1nc(-c2cccnc2)nc2c1[nH]c(=O)n2[C@H]1CC[C@H](O)CC1` [Compound 50, 9-(trans-4-Hydroxycyclohexyl)-8-oxo-2-(pyridin-3-yl)-8,9-dihydro-7H-purine-6-carboxamide] came in with an IC50 of 0.1 to 5 µM.
